Among the data in patent US10301320B2, “Compositions and methods of modulating 15-PGDH activity” (CASE WESTERN RESERVE UNIVERSITY, priority 2012, dated 2019) are inhibition values, retold here.

This assay has as its target recombinant 15-PGDH protein (Homo sapiens (Human), UniProt P15428). Description: Inhibition of enzymatic activity of recombinant 15-PGDH in vitro.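 Further: activity of recombinant human 15-PGDH assayed in vitro using PGE2 as the substrate.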 Type of assay: biochemical. Particulars: read-out: Enzyme inhibition % ([…]), recombinant 15-PGDH, […] compound.
[1] abbreviates: read-out: Enzyme inhibition % (2.5 μM).
Setting [2] is: read-out: Enzyme inhibition % (7.5 μM).

Read-outs that look alike come from different tables or passages of the source.

Sequence of recombinant 15-PGDH protein (P15428 whole entry): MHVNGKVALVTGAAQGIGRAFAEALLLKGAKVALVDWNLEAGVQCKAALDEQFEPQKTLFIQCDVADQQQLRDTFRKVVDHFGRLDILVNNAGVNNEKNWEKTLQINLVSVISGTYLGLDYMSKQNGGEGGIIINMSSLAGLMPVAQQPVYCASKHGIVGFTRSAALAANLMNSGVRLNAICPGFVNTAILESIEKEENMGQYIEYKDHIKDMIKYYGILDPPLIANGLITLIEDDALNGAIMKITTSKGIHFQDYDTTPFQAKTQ

As to `COc1ccc(OC)c(N(CC(=O)O)S(=O)(=O)c2ccccc2)c1` [SW122063], the inhibition at […] under setting [1] was -12.2% and the inhibition at […] under setting [2] was -10.5%. Turning to `COc1ccc(OC)c(N(CC(=O)N2CCCCC2)S(=O)(=O)c2ccccc2)c1` [SW131633], the inhibition at […] by setting is: under setting [1], 23.1%; under setting [2], 35.2%. Regarding `COc1ccc(OC)c(N(CC(N)=O)S(=O)(=O)c2ccccc2)c1` [SW131635], the inhibition at […] runs as follows: under setting [1], 11.8%; under setting [2], 35.4%. Taken in the same sequence, the figures for `COc1ccc(OC)c(N(CC(=O)Nc2ccncc2)S(=O)(=O)c2ccccc2)c1` [SW202938] were 52.7% and 75.6%. Turning to `COc1ccc(OC)c(N(CC(=O)Nc2cccnc2)S(=O)(=O)c2ccc(C)cc2)c1` [SW202939], the inhibition at […] is, setting by setting: under setting [1], 53.5%; under setting [2], 78.3%.

Take `COc1ccc(OC)c(N(CC(=O)Nc2ccccn2)S(=O)(=O)c2ccccc2)c1` [SW202941]: the inhibition at […] came to 10.9% under setting [1] and 35.6% under setting [2]. For `COc1ccc(OC)c(N(CC(=O)Nc2cccnc2)S(=O)(=O)c2ccccc2C)c1` [SW202943], the inhibition at […] runs as follows: under setting [1], -7.42%; under setting [2], 21.8%. As to `COc1ccc(OC)c(N(CC(=O)Nc2cccnc2)S(=O)(=O)c2ccccc2C(F)(F)F)c1` [SW202944], the inhibition at […] amounted to 28.3% under setting [1] and 57.8% under setting [2]. Take `COc1ccc(OC)c(N(CC(=O)Nc2cccnc2)S(=O)(=O)c2ccccc2C#N)c1` [SW202945]: the inhibition at […] runs as follows: under setting [1], 8.83%; under setting [2], 11.1%. For `COc1ccc(OC)c(N(CC(=O)Nc2ccnc(Cl)c2)S(=O)(=O)c2ccccc2)c1` [SW202946] the same measures were 81.6% and 89.8%. For the compound `COc1ccc(OC)c(N(CC(=O)Nc2cccnc2)S(=O)(=O)c2ccccc2F)c1` [SW202947], the inhibition at […] is 28.8% under setting [1] and 59.2% under setting [2]. Consider `COc1ccc(OC)c(NCC(=O)Nc2cccnc2)c1` [SW202948], for which the inhibition at […] is, setting by setting: under setting [1], 28.3%; under setting [2], 56.7%. Taken in the same sequence, the figures for `COc1ccc(OC)c(N(CC(=O)Nc2cccnc2)S(=O)(=O)c2ccccc2Cl)c1` [SW202949] were 12.5% and 34.4%. Taken in the same sequence, the figures for `COc1ccc(OC)c(N(CC(=O)Nc2cccnc2)S(=O)(=O)c2ccc(C(C)=O)cc2)c1` [SW202950] were 46.3% and 56.4%. Taken in the same sequence, the figures for `CCOC(=O)CN(c1cc(OC)ccc1OC)S(=O)(=O)c1ccccc1` [SW202951] were -15.4% and -8.59%.

`COc1ccc(OC)c(N(CC(=O)Nc2cccnc2)C(C)=O)c1` [SW202952]: the inhibition at […] runs as follows: under setting [1], 29%; under setting [2], 57%. As to `COc1ccc(OC)c(N(CC(=O)Nc2cccnc2)S(=O)(=O)c2c(C)cc(C)cc2C)c1` [SW202953], the inhibition at […] by setting is: under setting [1], 8.81%; under setting [2], 15.1%. Taken in the same sequence, the figures for `COc1ccc(OC)c(N(CC(=O)Nc2cccnc2)S(=O)(=O)c2ccccc2OC(F)(F)F)c1` [SW202954] were 6.02% and 9.88%.

With `COc1ccc(OC)c(N(CC(=O)Nc2ccccc2OC)S(=O)(=O)c2ccccc2)c1` [SW202965], the inhibition at […] is, setting by setting: under setting [1], 11.3%; under setting [2], 33.1%. Taken in the same sequence, the figures for `COc1ccc(OC)c(N(CC(=O)Nc2ccnc(C)c2)S(=O)(=O)c2ccccc2)c1` [SW202966] were 44.7% and 61.4%.

As to `COc1ccc(OC)c(N(CC(=O)Nc2cnccc2C)S(=O)(=O)c2ccccc2)c1` [SW202967], the inhibition at […] is -11.6% under setting [1] and 0.94% under setting [2].

With `COc1ccc(OC)c(N(CC(=O)Nc2cccnc2C)S(=O)(=O)c2ccccc2)c1` [SW202968], the inhibition at […] is -7.09% under setting [1] and 0.78% under setting [2]. As for `COc1ccc(OC)c(N(CC(=O)Nc2cccc(C)c2)S(=O)(=O)c2ccccc2)c1` [SW202969], the inhibition at […] by setting is: under setting [1], 0.91%; under setting [2], 9.43%.

`COc1ccc(OC)c(N(CC(=O)Nc2ccc(Cl)nc2)S(=O)(=O)c2ccccc2)c1` [SW202970]: the inhibition at […] by setting is: under setting [1], 17.5%; under setting [2], 48%.

For `COc1ccc(OC)c(N(CC(=O)OC(C)C)S(=O)(=O)c2ccccc2)c1` [SW202971], the inhibition at […] reads like this: under setting [1], -0.72%; under setting [2], -13.2%.

As for `COc1ccc(OC)c(N(CC(=O)Nc2cc(C)cnc2Cl)S(=O)(=O)c2ccccc2)c1` [SW202972], the inhibition at […] is -6.29% under setting [1] and -2.94% under setting [2]. As for `COc1ccc(OC)c(N(CC(=O)Nc2cccnc2Cl)S(=O)(=O)c2ccccc2)c1` [SW202973], the inhibition at […] reads like this: under setting [1], 3.3%; under setting [2], 13.6%. In the case of `COc1ccc(OC)c(N(CC(=O)Nc2cncc(C)c2)S(=O)(=O)c2ccccc2)c1` [SW202974], the inhibition at […] under setting [1] is -4.42% and the inhibition at […] under setting [2] was determined as 24.9%. Taken in the same sequence, the figures for `COc1ccc(OC)c(N(CC(=O)Nc2ccccc2C)S(=O)(=O)c2ccccc2)c1` [SW202975] were -14.8% and 4.53%. For `COc1cccc(NC(=O)CN(c2cc(OC)ccc2OC)S(=O)(=O)c2ccccc2)c1` [SW202976], the inhibition at […] by setting is: under setting [1], 7.87%; under setting [2], 29.8%. For `COc1ccc(OC)c(N(CC(=O)OC2CCCCC2)S(=O)(=O)c2ccccc2)c1` [SW202978] the same measures were 4.14% and 3.12%. For `COc1ccc(OC)c(N(CC(=O)OC(C)(C)C)S(=O)(=O)c2ccccc2)c1` [SW202979] the same measures were 3.92% and 6.24%. In the case of `COC(=O)CN(c1cc(OC)ccc1OC)S(=O)(=O)c1ccccc1` [SW202980], the inhibition at […] by setting is: under setting [1], -4.19%; under setting [2], 1.44%. Taken in the same sequence, the figures for `COc1ccc(OC)c(N(CC(=O)Nc2cccc(Cl)c2)S(=O)(=O)c2ccccc2)c1` [SW202985] were 13.8% and 30.9%. On to `CCCOC(=O)CN(c1cc(OC)ccc1OC)[S@SP3](=O)(=O)c1ccccc1` [SW202986], for which the inhibition at […] is -2.22% under setting [1] and 2.58% under setting [2]. For `COc1ccc(OC)c(N(CC(=O)Nc2ccccc2Cl)S(=O)(=O)c2ccccc2)c1` [SW202987] the same measures were 4.61% and 6.13%. Taken in the same sequence, the figures for `COc1ccc(OC)c(N(CC(=O)Nc2ccc(C)nc2)[S@SP3](=O)(=O)c2ccccc2)c1` [SW202988] were 10.3% and 33.7%. Regarding `COc1ccc(S(=O)(=O)N(CC(=O)Nc2ccncc2)c2cc(OC)ccc2OC)cc1` [SW202989], the inhibition at […] stood at 81.3% under setting [1] and 89.9% under setting [2].

Regarding `COc1ccc(OC)c(N(CC(=O)Nc2cncc(Cl)c2)S(=O)(=O)c2ccccc2)c1` [SW202990], the inhibition at […] is, setting by setting: under setting [1], 22.9%; under setting [2], 47.2%. Turning to `COc1ccc(OC)c(N(C(C)C(=O)Nc2cccnc2)S(=O)(=O)c2ccccc2)c1` (stereo not drawn) [SW202991], the inhibition at […] was -14.7% under setting [1] and -6% under setting [2]. As for `COc1ccc(OC)c(N(CC(=O)Nc2cccnn2)S(=O)(=O)c2ccccc2)c1` [SW203680], the inhibition at […] was 34.8% under setting [1] and 62.1% under setting [2].

Take `COc1ccc(OC)c(N(CC(=O)Nc2cnccn2)S(=O)(=O)c2ccccc2)c1` [SW203681]: the inhibition at […] was found to be 36.8% under setting [1] and 64.9% under setting [2].

Turning to `CNC(=O)CN(c1cc(OC)ccc1OC)S(=O)(=O)c1ccccc1` [SW203682], the inhibition at […] under setting [1] was 15.7% and the inhibition at […] under setting [2] is 36.2%. Turning to `COc1ccc(OC)c(N(CC(=O)Nc2cncnc2)S(=O)(=O)c2ccccc2)c1` [SW203683], the inhibition at […] runs as follows: under setting [1], 23.4%; under setting [2], 57.1%. Consider `COc1ccc(OC)c(N(CC(=O)Nc2cccnc2)S(=O)(=O)c2cccc(C)c2)c1` [SW203684], for which the inhibition at […] by setting is: under setting [1], 36.4%; under setting [2], 64.7%. Take `COc1ccc(OC)c(N(CC(=O)Nc2ccnnc2)S(=O)(=O)c2ccccc2)c1` [SW203685]: the inhibition at […] runs as follows: under setting [1], 44.3%; under setting [2], 73.3%. In the case of `COc1ccc(OC)c(N(CC(=O)N(C)c2cccnc2)S(=O)(=O)c2ccccc2)c1` [SW203686], the inhibition at […] runs as follows: under setting [1], 14.9%; under setting [2], 34.2%. In the case of `COc1ccc(OC)c(N(CC(=O)Nc2ccccc2)S(=O)(=O)c2ccccc2)c1` [SW203687], the inhibition at […] under setting [1] was found to be 15.1% and the inhibition at […] under setting [2] is 33.5%. Regarding `COc1ccc(OC)c(CN(CC(=O)Nc2cccnc2)S(=O)(=O)c2ccccc2)c1` [SW203688], the inhibition at […] was 13.1% under setting [1] and 40% under setting [2].

Turning to `COc1ccc(OC)c(N(CC(=O)Nc2nccs2)S(=O)(=O)c2ccccc2)c1` [SW203691], under setting [1], the inhibition at […] was found to be 2.62%. Take `COc1ccc(OC)c(N(CC(=O)N2CCCCCC2)S(=O)(=O)c2ccccc2)c1` [SW208000]: the inhibition at […] reads like this: under setting [1], 5.82%; under setting [2], 12.5%. In the case of `COc1ccc(OC)c(N(CC(=O)N2CCCC2)S(=O)(=O)c2ccccc2)c1` [SW208001], the inhibition at […] is, setting by setting: under setting [1], 21.8%; under setting [2], 27.7%. Take `COc1ccc(OC)c(N(CC(=O)N2CCCC2=O)S(=O)(=O)c2ccccc2)c1` [SW208002]: the inhibition at […] stood at 34.7% under setting [1] and 59.2% under setting [2]. For the compound `COc1ccc(OC)c(N(CC(=O)N2CCc3ccccc32)S(=O)(=O)c2ccccc2)c1` [SW208003], the inhibition at […] under setting [1] is 15.2% and the inhibition at […] under setting [2] turned out to be 20.9%. As for `COc1ccc(OC)c(N(CC(=O)Nc2ccncc2F)S(=O)(=O)c2ccccc2)c1` [SW208004], the inhibition at […] under setting [1] came to 52.3% and the inhibition at […] under setting [2] worked out at 57%. Consider `COc1ccc(OC)c(N(CC(=O)Nc2ccnc(F)c2)S(=O)(=O)c2ccccc2)c1` [SW208005], for which the inhibition at […] by setting is: under setting [1], 44.1%; under setting [2], 52%.
